Laboratory results as given in the Kinase Knowledgebase extract (Sharma et al. 2016).
pIC50: −log10 of the molar value.

Target: PIK3CG (human) (UniProt P48736)
Test: Assessment of PIK3CG Kinase Activity

Chain of PIK3CG (human) (P48736 whole entry, looked up): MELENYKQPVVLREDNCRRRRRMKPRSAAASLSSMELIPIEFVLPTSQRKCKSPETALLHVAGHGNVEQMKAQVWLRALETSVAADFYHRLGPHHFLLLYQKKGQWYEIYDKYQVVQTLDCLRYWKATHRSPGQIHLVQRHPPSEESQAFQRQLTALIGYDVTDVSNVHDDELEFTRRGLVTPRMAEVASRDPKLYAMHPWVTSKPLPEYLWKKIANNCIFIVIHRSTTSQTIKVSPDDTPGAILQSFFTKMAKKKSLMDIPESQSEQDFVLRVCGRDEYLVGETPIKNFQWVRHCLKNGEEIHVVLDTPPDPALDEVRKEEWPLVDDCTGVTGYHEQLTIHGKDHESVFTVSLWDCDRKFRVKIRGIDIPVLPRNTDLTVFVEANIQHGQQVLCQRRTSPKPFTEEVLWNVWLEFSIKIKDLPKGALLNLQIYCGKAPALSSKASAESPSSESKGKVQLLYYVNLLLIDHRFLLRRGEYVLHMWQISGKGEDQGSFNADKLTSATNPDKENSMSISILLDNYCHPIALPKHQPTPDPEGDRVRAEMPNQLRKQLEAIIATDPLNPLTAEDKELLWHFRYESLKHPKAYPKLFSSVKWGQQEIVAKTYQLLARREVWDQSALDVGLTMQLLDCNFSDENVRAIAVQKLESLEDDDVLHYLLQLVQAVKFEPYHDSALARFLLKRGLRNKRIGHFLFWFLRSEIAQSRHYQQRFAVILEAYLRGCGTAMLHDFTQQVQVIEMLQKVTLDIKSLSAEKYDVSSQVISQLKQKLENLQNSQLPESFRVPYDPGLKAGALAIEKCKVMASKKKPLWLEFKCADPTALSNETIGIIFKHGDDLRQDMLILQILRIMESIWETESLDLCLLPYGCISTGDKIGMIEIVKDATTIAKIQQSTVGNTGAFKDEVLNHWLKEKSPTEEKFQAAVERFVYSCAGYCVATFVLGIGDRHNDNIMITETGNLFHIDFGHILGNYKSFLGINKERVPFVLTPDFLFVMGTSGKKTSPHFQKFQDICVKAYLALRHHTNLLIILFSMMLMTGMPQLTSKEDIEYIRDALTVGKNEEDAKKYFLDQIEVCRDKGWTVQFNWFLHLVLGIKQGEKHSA

SMILES	pIC50
CC(C)c1cnc(CCNC(=O)Nc2nc3c(s2)-c2c(c(C4CC4)nn2-c2ccccc2Cl)CC3)o1	> 6.10
CCN(CC)CCNC(=O)Nc1nc2c(s1)-c1c(c(-c3cncnc3)nn1-c1ccccc1Cl)CC2	> 6.10
O=C(NC[C@H]1CCCN1C(=O)N1CCCC1)Nc1nc2c(s1)-c1c(c(-c3cncnc3)nn1-c1ccccc1Cl)CC2	> 6.10
O=C(NCc1cccc(N2CCNC2=O)c1)Nc1nc2c(s1)-c1c(c(-c3cccnc3)nn1-c1ccccc1Cl)CC2	> 6.10
CC(C)c1cnc(CCNC(=O)Nc2nc3c(s2)-c2c(c(-c4cccnc4)nn2-c2ccccc2Cl)CC3)o1	> 6.10
O=C(NCCN1CCCC1=O)Nc1nc2c(s1)-c1c(c(-c3ccccc3)nn1-c1ccccc1Cl)CC2	> 6.10
O=C(NCc1cccc(N2CCNC2=O)c1)Nc1nc2c(s1)-c1c(c(-c3cccnc3)nn1C1CCN(C3CCCC3)CC1)CC2	> 6.10
CCc1cccc(CNC(=O)Nc2nc3c(s2)-c2c(c(-c4cccnc4)nn2C2CCN(C)CC2)CC3)c1	> 6.10
CC(=O)Nc1cccc(CNC(=O)Nc2nc3c(s2)-c2c(c(-c4cncnc4)nn2-c2ccccc2Cl)CC3)c1	> 6.10
CC(C)(C)OC(=O)N1CC[C@H](CNC(=O)Nc2nc3c(s2)-c2c(c(-c4cncnc4)nn2-c2ccccc2Cl)CC3)C1	> 6.10
O=C(Nc1nc2c(s1)-c1c(c(-c3cccnc3)nn1-c1ccccc1Cl)CC2)N1CCCC(c2nc3ccccc3[nH]2)C1 (stereo not drawn)	> 6.10
CC(=O)N(C)c1cccc(CNC(=O)Nc2nc3c(s2)-c2c(c(-c4cccnc4)nn2-c2ccccc2Cl)CC3)c1	> 6.10
CCc1cnc(CCNC(=O)Nc2nc3c(s2)-c2c(c(-c4cccnc4)nn2C2CCN(C)CC2)CC3)o1	> 6.10
CC(C)c1cccc(CNC(=O)Nc2nc3c(s2)-c2c(c(-c4cccnc4)nn2-c2ccccc2Cl)CC3)c1	> 6.10
CC(NC(=O)Nc1nc2c(s1)-c1c(c(-c3cccnc3)nn1-c1ccccc1Cl)CC2)c1cccc(NC(=O)OC(C)(C)C)c1 (stereo not drawn)	> 6.10
O=C(NCCc1nc(C2CC2)no1)Nc1nc2c(s1)-c1c(c(-c3cccnc3)nn1-c1ccccc1Cl)CC2	> 6.10
CC(C)(CNc1ccc(C(C)(C)C)cc1)NC(=O)Nc1nc2c(s1)-c1c(c(-c3cccnc3)nn1-c1ccccc1Cl)CC2	> 6.10
CCc1cccc(CNC(=O)Nc2nc3c(s2)-c2c(c(C4CC4)nn2-c2ccccc2Cl)CC3)c1	> 6.10
CC(=O)Nc1cccc(CNC(=O)Nc2nc3c(s2)-c2c(c(-c4cccnc4)nn2C2CCN(C4CCCC4)CC2)CC3)c1	> 6.10
CN(C)CCOc1cccc(CNC(=O)Nc2nc3c(s2)-c2c(c(-c4cncnc4)nn2-c2ccccc2Cl)CC3)c1	> 6.10
CC(=O)Nc1cccc(CNC(=O)Nc2nc3c(s2)-c2c(c(-c4cccnc4)nn2-c2ccccc2Cl)CC3)c1	> 6.10
CC(C)(C)OC(=O)N1CCC[C@@H]1CNC(=O)Nc1nc2c(s1)-c1c(c(-c3cncnc3)nn1-c1ccccc1F)CC2	> 6.10
COc1ccccc1C1CCN(C(=O)Nc2nc3c(s2)-c2c(c(-c4cccnc4)nn2-c2ccccc2Cl)CC3)C1 (stereo not drawn)	> 6.10
CN1CCN(C(=O)CCCNC(=O)Nc2nc3c(s2)-c2c(c(-c4ccccc4)nn2-c2ccccc2Cl)CC3)CC1	> 6.10
O=C(Nc1nc2c(s1)-c1c(c(-c3cccnc3)nn1-c1ccccc1Cl)CC2)NC1(c2nc3ccc(Cl)cc3[nH]2)CCCCC1	> 6.10
CC1(C)NC(=O)N(Cc2ccc(CNC(=O)Nc3nc4c(s3)-c3c(c(-c5cccnc5)nn3-c3ccccc3Cl)CC4)cc2)C1=O	> 6.10

SMILES	pIC50
O=C(NC[C@@H]1CCNC1)Nc1nc2c(s1)-c1c(c(-c3cncnc3)nn1-c1ccccc1Cl)CC2	> 6.10
O=C(NCc1ncc[nH]1)Nc1nc2c(s1)-c1c(c(-c3cccnc3)nn1-c1ccccc1Cl)CC2	> 6.10
CNC(=O)Nc1nc2c(s1)-c1c(c(-c3cncnc3)nn1-c1ccccc1Cl)CC2	> 6.10
O=C(NCCc1cccc(C(F)(F)F)c1)Nc1nc2c(s1)-c1c(c(-c3cncnc3)nn1-c1ccccc1Cl)CC2	> 6.10
O=C1Cc2ccccc2CN1CC1CCN(C(=O)Nc2nc3c(s2)-c2c(c(-c4cccnc4)nn2-c2ccccc2Cl)CC3)C1 (stereo not drawn)	> 6.10
O=C(NCCC(=O)N1CCCC1)Nc1nc2c(s1)-c1c(c(-c3cncnc3)nn1-c1ccccc1Cl)CC2	> 6.10
CCc1noc(CCNC(=O)Nc2nc3c(s2)-c2c(c(-c4cccnc4)nn2-c2ccccc2Cl)CC3)n1	> 6.10
O=C(NCCCn1ccnc1)Nc1nc2c(s1)-c1c(c(-c3cncnc3)nn1-c1ccccc1F)CC2	> 6.10
O=C(Nc1nc2c(s1)-c1c(c(-c3cccnc3)nn1-c1ccccc1Cl)CC2)N1CCCC(c2ccccc2O)C1 (stereo not drawn)	> 6.10
CCc1cnc(CCNC(=O)Nc2nc3c(s2)-c2c(c(-c4cccnc4)nn2-c2ccccc2Cl)CC3)o1	> 6.10
O=C(Nc1nc2c(s1)-c1c(c(-c3cccnc3)nn1-c1ccccc1Cl)CC2)N1CCCCC1c1nc2ccccc2[nH]1 (stereo not drawn)	> 6.10
O=C(NCc1ccccc1-n1cccn1)Nc1nc2c(s1)-c1c(c(-c3cccnc3)nn1-c1ccccc1Cl)CC2	> 6.10
C[C@@H](C(=O)N1CCC[C@@H]1CNC(=O)Nc1nc2c(s1)-c1c(c(-c3cncnc3)nn1-c1ccccc1Cl)CC2)N(C)C(=O)OC(C)(C)C	> 6.10
CN1CCN(CCNC(=O)Nc2nc3c(s2)-c2c(c(-c4cncnc4)nn2-c2ccccc2Cl)CC3)CC1	> 6.10
CC(C)c1nnc(CCNC(=O)Nc2nc3c(s2)-c2c(c(-c4cccnc4)nn2C2CCN(C)CC2)CC3)o1	> 6.10
CC1CC(c2ccc(O)cc2)CN1C(=O)Nc1nc2c(s1)-c1c(c(-c3cccnc3)nn1-c1ccccc1Cl)CC2 (stereo not drawn)	> 6.10
CCn1cnc(CCNC(=O)Nc2nc3c(s2)-c2c(c(-c4cccnc4)nn2-c2ccccc2Cl)CC3)c1	> 6.10
CC(C)(C)OC(=O)N1CCC[C@@H]1CNC(=O)Nc1nc2c(s1)-c1c(c(-c3cncnc3)nn1-c1ccccc1Cl)CC2	> 6.10
N[C@@H]1CC[C@@H](NC(=O)Nc2nc3c(s2)-c2c(c(-c4ccccc4)nn2-c2ccccc2Cl)CC3)C1	> 6.10
NC(=O)Nc1nc2c(s1)-c1c(c(-c3cccnc3)nn1-c1ccc(S(N)(=O)=O)cc1Cl)CC2	> 6.10
O=C(NCCCN1CCOCC1)Nc1nc2c(s1)-c1c(c(-c3cncnc3)nn1-c1ccccc1F)CC2	> 6.10
O=C(NC[C@H]1CCCN1C(=O)Oc1ccccc1)Nc1nc2c(s1)-c1c(c(-c3cncnc3)nn1-c1ccccc1Cl)CC2	> 6.10
CC(C)(C)OC(=O)N1CCC(C(=O)N2CCC[C@@H]2CNC(=O)Nc2nc3c(s2)-c2c(c(-c4cncnc4)nn2-c2ccccc2Cl)CC3)C1 (stereo partly drawn)	> 6.10
NC(=O)Nc1cccc(CNC(=O)Nc2nc3c(s2)-c2c(c(C4CC4)nn2-c2ccccc2Cl)CC3)c1	> 6.10
CNC(=O)Nc1nc2c(s1)-c1c(c(-c3cccnc3)nn1-c1ccccc1Cl)CC2	> 6.10
CC(C)(C)OC(=O)N1CCCC(CNC(=O)Nc2nc3c(s2)-c2c(c(-c4cncnc4)nn2-c2ccccc2Cl)CC3)C1 (stereo not drawn)	> 6.10

SMILES	pIC50
CC(C)c1noc(CCNC(=O)Nc2nc3c(s2)-c2c(c(-c4cccnc4)nn2C2CCN(C)CC2)CC3)n1	> 6.10
O=C(Nc1nc2c(s1)-c1c(c(-c3cccnc3)nn1-c1ccccc1Cl)CC2)NC1CCC(N2CCNC2=O)CC1 (stereo not drawn)	> 6.10
O=C(Nc1nc2c(s1)-c1c(c(-c3ccccc3)nn1-c1ccccc1Cl)CC2)NC1CCC(NS(=O)(=O)c2ccccc2)CC1 (stereo not drawn)	> 6.10
O=C(NC[C@H]1CCCN1C(=O)Cc1ccccc1)Nc1nc2c(s1)-c1c(c(-c3cncnc3)nn1-c1ccccc1Cl)CC2	> 6.10
CN1CCC(C(=O)N2CCC[C@@H]2CNC(=O)Nc2nc3c(s2)-c2c(c(-c4cncnc4)nn2-c2ccccc2Cl)CC3)C1 (stereo partly drawn)	> 6.10
O=C(NCCc1cn[nH]c1)Nc1nc2c(s1)-c1c(c(-c3cccnc3)nn1-c1ccccc1Cl)CC2	> 6.10
CCc1cnc(CCNC(=O)Nc2nc3c(s2)-c2c(c(Nc4ccccn4)nn2-c2ccccc2)CC3)o1	> 6.10
O=C(NCc1cccc(N2CCNC2=O)c1)Nc1nc2c(s1)-c1c(c(Nc3ccccn3)nn1-c1ccccc1)CC2	> 6.10
CN1CCC(O)C2(CCCN(C(=O)Nc3nc4c(s3)-c3c(c(-c5cccnc5)nn3-c3ccccc3Cl)CC4)C2)C1 (stereo not drawn)	> 6.10
CCc1noc(CCNC(=O)Nc2nc3c(s2)-c2c(c(-c4cccnc4)nn2C2CCN(C)CC2)CC3)n1	> 6.10
O=C(NCCn1cc[nH]c1=O)Nc1nc2c(s1)-c1c(c(-c3ccccc3)nn1-c1ccccc1Cl)CC2	> 6.10
NC(=O)N1Cc2ccc(CNC(=O)Nc3nc4c(s3)-c3c(c(-c5cccnc5)nn3-c3ccccc3Cl)CC4)cc2C1	> 6.10
O=C(NCc1ccc(-c2ncc[nH]2)cc1)Nc1nc2c(s1)-c1c(c(-c3cncnc3)nn1-c1ccccc1Cl)CC2	> 6.10
CCc1noc(CCNC(=O)Nc2nc3c(s2)-c2c(c(-c4ccccc4)nn2-c2cccc(Cl)c2)CC3)n1	> 6.10
O=C(NCc1cccc(N2CCNC2=O)c1)Nc1nc2c(s1)-c1c(c(-c3cncnc3)nn1-c1ccccc1Cl)CC2	> 6.10
CC(C)(C)OC(=O)N1CCCC1CNC(=O)Nc1nc2c(s1)-c1c(c(Nc3ccccn3)nn1-c1ccccc1)CC2 (stereo not drawn)	> 6.10
CNC(=O)[C@H](C)NC(=O)Nc1nc2c(s1)-c1c(c(-c3ccccc3)nn1-c1ccccc1Cl)CC2	> 6.10
CC(C)(C)OC(=O)N[C@H]1CC[C@H](CNC(=O)Nc2nc3c(s2)-c2c(c(-c4cccnc4)nn2-c2ccccc2Cl)CC3)CC1	> 6.10
O=C(NCCCC(=O)N1CCOCC1)Nc1nc2c(s1)-c1c(c(-c3ccccc3)nn1-c1ccccc1Cl)CC2	> 6.10
CN(C)C(=O)Nc1nc2c(s1)-c1c(c(-c3cccnc3)nn1-c1ccccc1Cl)CC2	> 6.10
CC(C)(CNc1ncccn1)NC(=O)Nc1nc2c(s1)-c1c(c(-c3cccnc3)nn1-c1ccccc1Cl)CC2	> 6.10
CN1CCC(n2nc(-c3cncnc3)c3c2-c2sc(NC(=O)NC[C@H]4CCCN4C(=O)OC(C)(C)C)nc2CC3)CC1	> 6.10
CC(C)(C)CC(=O)N1CCC[C@@H]1CNC(=O)Nc1nc2c(s1)-c1c(c(-c3cncnc3)nn1-c1ccccc1Cl)CC2	> 6.10
Cc1c[nH]c(CCNC(=O)Nc2nc3c(s2)-c2c(c(-c4cccnc4)nn2-c2ccccc2Cl)CC3)n1	> 6.10
C[C@H](NC(=O)Nc1nc2c(s1)-c1c(c(-c3ccccc3)nn1-c1ccccc1Cl)CC2)C(=O)N1CCN(C)CC1	> 6.10
CC(C)c1noc(CCNC(=O)Nc2nc3c(s2)-c2c(c(-c4cccnc4)nn2-c2ccccc2Cl)CC3)n1	> 6.10
